Experimental data published in patent US12525646B2, “Ionic cyclic nitroxyl radical oligomers” (Wisconsin Alumni Research Foundation, priority 2021, dated 2026).

How the values were obtained:
Assay type in all cases: physicochemical
[1] = Permeability through AMVN anion-exchange membrane; settings: low ionic-conductivity AMVN membrane
From the text: Crossover of the TEMPO species is critical to RFB lifetime as it lowers the catholyte capacity through material loss and the anolyte capacity through chemical/electrochemical side reactions.

[2] = Electrochemical impedance spectroscopy (PEIS), Z-fitting to ideal Randle equivalent circuit; settings: PEIS Z-fit
[3] = Viscosity of solutions versus volumetric capacity; settings: compared with TMAP-TEMPO; reduced (uncharged) state
From the text: When determining the maximum cycling concentration with the water-miscible i-TEMPODs, the active molecule solubility no longer limits volumetric capacity as the interaction between the dissolved species and the water molecules are very thermodynamically favorable, and each TEMPO dimer is able to dissolve with a minimal amount of coordinated water. Instead, the cycling concentration will be limited by the electrolyte viscosity and its relation to pumping energy cost. The viscosity of representative TEMPO monomer and dimer solutions was experimentally measured at various volumetric capacities in their reduced (uncharged) states. FIG. 35A compares the viscosity of the i-TEMPODs to previously known TEMPO monomers, which are designated “OH”, “Nine”, and “TMAP”. Descriptions of these monomers can be found in: T. Liu, X. Wei, Z. Nie, V. Sprenkle, W. Wang, A Total Organic Aqueous Redox Flow Battery Employing a Low Cost and Sustainable Methyl Viologen Anolyte and 4-HO-TEMPO Catholyte. Adv. Energy Mater. 6 (2016); T. Janoschka, N. Martin, M. D. Hager, U. S. Schubert, An Aqueous Redox-Flow Battery with High Capacity and Power. The TEMPTMA/MV System. Angew. Chemie—Int. Ed. 55, 14427-14430 (2016); and Y. Liu, M. A. Goulet, L. Tong, Y. Liu, Y. Ji, L. Wu, R. G. Gordon, M. J. Aziz, Z. Yang, T. Xu, A Long-Lifetime All-Organic Aqueous Flow Battery Utilizing TMAP-TEMPO Radical. Chem. 5, 1861-1870 (2019). […]

For `CC1(C)CC([N+](C)(C)C2CC(C)(C)N([O])C(C)(C)C2)CC(C)(C)N1[O]` [i-TEMPOD-1], the “crossover with the AMVN membrane” value [1] was “no detectible crossover”, the C1 [2] was 264.7 uF and the Rct [2] was 17.43 Ohm. The Ru [2] was 27.54 Ohm and the “viscosity at a given volumetric capacity” value [3] was “nearly equal viscosity”.
